Legend:
T47D cells = experiment: [3H]thymidine incorporation in T47D cells; assay type: cell-based, human; conditions: 200 nM, serum 24 hours
Description: Cell Culture and DNA Synthesis: T47D (ductal carcinoma) and MCF7 (adenocarcinoma) human breast cancer cell lines were obtained from the American Type Culture Collection. All cell lines were maintained according to vendors' recommendations. The cells were growth arrested by placing them in serum-free quiescence media and exposed to 10% serum-containing media as indicated. [^3H]Thymidine incorporation was assessed as described previously (Weiss, R. H., and Nuccitelli, R., J. Biol. Chem., 267: 5608-5613, 1992).
Apoptotic cells will not incorporate thymidine into DNA during S phase, but [^3H]thymidine incorporation experiments will not distinguish between G1→S arrest and apoptosis. Serum-starved cells were transfected with 200 nM antisense p21 and control ODN, stimulated with serum-containing media, and examined for their ability to incorporate [^3H]thymidine into DNA. […] Antisense p21 attenuates [^3H]thymidine incorporation. MCF7 and T47D cells were grown to confluence, serum starved for 24 hours, and lipofected with antisense p21 (AS) or control (SC) ODN at the concentrations indicated (in nM). […] Serum was added for 24 hours, and the cells were incubated with [^3H]thymidine for the last 6 hours. DNA synthesis was assessed by [^3H]thymidine incorporation and is expressed as mean +SD of 3 wells/data point. *, P <0.05 compared with antisense p21 ODN transfection. […]

MCF7 cells = experiment: Nuclear morphology (Hoechst 33258) in MCF7 cells; assay type: cell-based, human; conditions: serum stimulated 24 hours after lipofection
Description: Evaluation of Nuclear Morphology: Cells were seeded in 6-well culture dishes and treated with ODNs as described. The cells were then immersed in methanol for at least 10 min. Cells were stained in 1 μg/ml Hoechst 33258 in water with 1% nonfat dry milk. After staining for 8-10 min, the cells were rinsed in water and dried completely. Nuclear morphology was visually evaluated by fluorescence microscopy.
Apoptosis is the end result of an elaborate cascade of molecular events that ultimately result in programmed cell death; thus, a variety of tests are generally used to determine whether apoptosis is occurring. The methods to study apoptosis were employed: (a) assessment of nuclear morphology; (b) PARP cleavage; and (c) caspase-3 cleavage. Serum-starved cells were transfected with antisense p21 ODN or the control ODN, fixed, stained with Hoechst 33258, and examined under UV light. MCF7 and T47D cells were grown to confluence, serum starved for 24 hours, and lipofected with antisense p21 or control ODN. The cells were subsequently serum stimulated for another 24 hours, fixed, stained with Hoechst 33258, and examined under UV light at X400.

α-actin = experiment: alpha-actin protein level by Western blot in A10 VSM cells; assay type: cell-based, rat
Description: (§1) Western blots: Cells were grown to confluence in 6 cm culture dishes and serum deprived. After transfection and or treatment with appropriate agonist, the cells were washed with phosphate-buffered saline and lysed in lysis buffer and the supernatant was Western blotted as described (Weiss et al., 1998 Am. J. Physiol., 274, p. C1521-C1529).
At the times indicated after the overnight incubation (in hours), the medium was changed to quiescence medium and the cells were stimulated with PMA for 4 hours to show maximal p21^Waf1/Cip1 expression (FIG. 6a). The lysates were immunoblotted with (a) p21^Waf1/Cip1 or p27^Kip1 antibody or (b) α-actin antibody. This is likely due to sequence similarity between the two genes, as p21^Waf1/Cip1 shares 43% sequence identity with p27^Kip1 in the cdk/cyclin binding site (residues 27-88), located in the conserved N terminus (Nomura et al., 1997 Gene, 191, p. 211-218; Toyoshima and Hunter, 1994 Cell, 78, p. 67-74).
Using a random sequence phosphorothioate oligodeoxynucleotide (SEQ. ID NO.:3) as a control, the effect of the antisense oligodeoxynucleotide to p21 (400 nM) on p21 and α-actin protein expression in A10 VSM cells, was examined. The lysates, normalized for protein content, were Western blotted with either p21 or α-actin antibody.

p27^Kip1 = experiment: p27Kip1 protein level by Western blot in A10 VSM cells; assay type: cell-based, rat; conditions: PMA for 4 hours
Description: as §1
To check for specificity of protein inhibition by the antisense p21^Waf1/Cip1 oligodeoxynucleotide (SEQ. ID NO.: 1), protein levels of p21^Waf1/Cip1 and p27^Kip1 after transfection with antisense p21^Waf1/Cip1 oligodeoxynucleotide (SEQ. ID NO.:1) were examined. In these experiments the ability of antisense oligodeoxynucleotides (SEQ. ID NO.:1) to inhibit maximally stimulated CKI expression (see FIG. 4) was assessed. The cells were stimulated with PMA for 4 hours at various times after overnight serum starvation.
At the times indicated after the overnight incubation (in hours), the medium was changed to quiescence medium and the cells were stimulated with PMA for 4 hours to show maximal p21^Waf1/Cip1 expression (FIG. 6a). The lysates were immunoblotted with (a) p21^Waf1/Cip1 or p27^Kip1 antibody or (b) α-actin antibody. […]

A10 VSM cells = experiment: [3H]thymidine incorporation (DNA synthesis) in A10 VSM cells; assay type: cell-based, rat
laminin = experiment: Laminin production and secretion (immunoblot of lysate and conditioned media); assay type: cell-based, rat; conditions: VSM cells, 400 nM, TGF-β 0.1 to 10 ng/ml for 4 hours
Description: Western blots: Cells were grown to confluence in 6 cm culture dishes and serum deprived. After transfection and/or treatment with appropriate agonist, conditioned medium was removed and saved and the cells were washed with phosphate-buffered saline and lysed in lysis buffer. Both supernatant and cell lysate were normalized to the lysate protein concentrations and Western blotted as described (Weiss, R. H.; et al. Am. J. Physiol. 274: C1521-C1529; 1998).
The p21 influences on matrix protein secretion in VSM cells were determined. Levels of the matrix proteins laminin and fibronectin were examined in both TGF-β stimulated lysate and conditioned media of cells in which p21 expression had been attenuated. The cells were transfected with either antisense p21 (SEQ. ID NO.:1) (400 nM), or random sequence control (SEQ. ID NO.:3) (400 nM) oligodeoxynucleotide, and then stimulated with TGF-β at for 0.1 to 10 ng/ml for 4 hours. Conditioned media and cell lysate were collected, and both medium and lysate volumes were normalized for the protein content in total cell lysate to exclude any skewing of the data due to cell proliferation. The proteins were electrophoresed and immunoblotted with either fibronectin (after immunoprecipitation to eliminate extraneous bands which appeared in the absence of this procedure) or laminin antibody.

| Substance | [3H]thymidine incorporation (DNA incorporation) (T47D cells) | nuclear morphology (MCF7 cells) | α-actin protein level (α-actin; 400 nM) | levels of α-actin (α-actin; identical conditions to p21 blot) | p27^Kip1 protein (p27^Kip1) | PDGF-stimulated DNA synthesis (A10 VSM cells; A10 VSM cells, 200 nM oligodeoxynucleotide lipofected, PDGF-BB 30 ng/ml 18 hours) | DNA synthesis relative to control oligodeoxynucleotide (A10 VSM cells; A10 VSM cells, 10% serum) | PDGF-stimulated DNA synthesis, dose/response (A10 VSM cells; A10 VSM cells, increasing oligodeoxynucleotide concentration up to 200 nM) | effects of irradiation on cell cycle arrest (DNA synthesis) (A10 VSM cells; VSM cells, 1 to 12 Gy, maximum potentiation at 8 Gy) | potentiation of irradiation effect at 12 Gy (A10 VSM cells; VSM cells, 12 Gy) | potentiation of Adriamycin growth inhibition (A10 VSM cells; VSM cells, 1000 to 2000 ng/ml Adriamycin) | cell growth (DNA synthesis) stimulated with PDGF-BB and serum (A10 VSM cells; VSM cells, similar oligodeoxynucleotide concentrations (FIG. 9d)) | DNA synthesis in non-irradiated cells (A10 VSM cells; confluent VSM cells in serum-containing medium) | production and secretion of laminin (laminin) |
| --- | --- | --- | --- | --- | --- | --- | --- | --- | --- | --- | --- | --- | --- | --- |
| 5′-ATC-CCC-AGC-CGG-TTC-TGA-CAT-3′ (antisense ATCCCCAGCCGGTTCTGACAT; listed as DNA, chemistry not fully specified) [antisense p21 ODN] | significant attenuation | nuclear morphological changes consistent with apoptosis | – | – | – | – | – | – | – | – | – | – | – | – |
| 5′-GACATCACCAGGATCGGACAT-3′ | – | – | no effect | not altered | slight decrease | Significant inhibition | markedly inhibited | inhibition of DNA synthesis with increasing concentration | potentiated at higher doses of radiation | did not reach statistical significance | significant potentiation | inhibited | marked inhibition | markedly reduced |

Reference: patent publication US20050043262A1, “Novel specific inhibitor of the cyclin kinase inhibitor p21Waf1/Cip1 and methods of using the inhibitor” (priority 2000, published 2005)
